This note sets out measurements from PMC9166630, “SAR Probing of KX2-391 Provided Analogues With Juxtaposed Activity Profile Against Major Oncogenic Kinases” (Frontiers in Oncology, 2022).

The subject of series [1] is MCF7 (breast) cancer cells. Description: SRB cytotoxicity assay, MCF7. In kind it is cell-based, human. The conditions noted are these: Homo sapiens, MCF7, 72 h, maximum tested concentration 50 µM, read-out: IC50 ± SEM, MCF7. The method, then:
MCF7 (breast) or N87 (stomach) cancer cells were grown in Roswell Park Memorial Institute-1640 (RPMI-1640) medium (Thermo Fisher Scientific, Inc; Waltham, MA, USA), supplemented with 10% heat inactivated fetal bovine serum (FBS), 50 units/mL of penicillin and […] of streptomycin and maintained at 37°C in a humidified atmosphere containing 5% CO2. The cells were maintained as “monolayer culture” by serial subculturing.
Cytotoxicity was determined using Sulforhodamine B (SRB) method as previously described by Skehan et al. ([66]). Exponentially growing MCF7 and N87 cells were collected using 0.25% Trypsin-EDTA and were then seeded in 96-well plates at a density of 1000-2000 cells/well in 10% FBS and penicillin/streptomycin supplemented RPMI-1640 medium. After 24 h, cells were treated with different concentrations of test compounds and incubated for 72 h at 37°C in a humidified atmosphere containing 5% CO2. Next, the cells were fixed by adding trichloroacetic acid (TCA, 10% final conc. in wells) directly to the wells and incubated for 1 h at 4°C, then cells were washed with distilled water 5 times to remove excess TCA, media, serum proteins, and metabolites, followed by air drying. After that, the fixed cells were stained with 0.4% SRB dissolved in 1% acetic acid for 10 min at room temperature, and excess stain was removed by quickly rinsing with 1% acetic acid. The residual acetic acid was removed completely by air drying the plates for 24 h, and the dye was solubilized with Tris buffer (pH= 7.4, 10 mM) for 5 min on a shaker at 1600 rpm. The optical density (OD) of each well was measured spectrophotometrically at 564 nm with an ELISA microplate reader (ChroMate-4300, FL, USA). The IC50 values (concentration of drug resulting in 50% reduction in cell survival) were calculated according to the equation for Boltzman sigmoidal concentration–response curve using the nonlinear regression fitting models (Graph Pad, Prism Version 5).
(The SRB assay estimates cell density from bound dye.)

The nature of series [2]: Stability in mouse liver microsomes. The settings on record: for half-life: male, CD-1, mouse liver microsomes with NADPH, 37°C, read-out: Stability MLM t1/2; for Mic. Ctrl. Mouse % 60 min: mouse liver microsomes, no NADPH added. The class given is in vitro ADME. As for the experimental part:
Both mouse and human liver microsomes were obtained from Merck KGaA, (Darmstadt, Germany), Cat. No. M9441 (Mouse liver microsomes) and M0317 (Human liver microsomes). Assays were conducted in triplicate in 96-deep well polypropylene plates. […] At five time points, reaction mixture aliquots were transferred to 96-shallow well stop plates on ice containing acetonitrile with 0.1 µM propafenone. […] Standard curves for test compound were generated using 5 concentrations in triplicate that were processed as above but with zero incubation time. Stop plates were centrifuged at 2000 g for 10 min and then supernatant aliquots were transferred to a Waters Aquity® UPLC 700 µL 96-well sample plate with cap mat (Waters, Milford, MA). The amount of compound remaining in the supernatant was quantified by LC/MS/MS using a Waters Xevo TQ MS (electrospray positive mode) coupled to a Waters Aquity® UPLC (BEH column, C18). Propafenone was used as the internal standard. GraphPad® Prism v 5.04 was used for nonlinear fitting of time course data to generate t1/2 values.
(Liver microsomes are vesicles of endoplasmic reticulum, rich in cytochrome P450 enzymes.)

A further series relates to K562 leukemia cell line. Description: CellTiter-Blue cell viability assay, K562. In kind it is cell-based. The settings on record: Homo sapiens, CellTiter-Blue, 48 h, maximum tested concentration 20 µM, read-out: IC50 ± SEM, K562. The method, then: (§1) HL60, K562, MV4-11 and NB4 were purchased from CLS Cell Line Service GmbH (Eppelheim, Germany). All cell lines were cultured in RPMI-1640 medium supplemented with 10% fetal bovine serum (FBS) (Thermo Fisher Scientific) and 0.1% ciprofloxacin (2.5mg/ml; Cipla Limited; Mumbai, India), and were maintained at 37°C in the presence of 21% O2 and 5% CO2.
(§2) Cell viability was determined using the CellTiter®-Blue Cell Viability Assay kit (Promega, Madison, WI, USA). Approximately 10^4 cells were counted and plated in a 96-well plate in the presence of test compounds ranging from 0.01 to 10 or 20 µM in triplicate and were incubated for 48 h at 37°C in a humidified incubator. After the incubation period was complete, 20 µL of CellTiter®-Blue Cell Viability Assay reagent was added to each well and incubated for additional 2 h for the development of florescence. Florescence was measured at Ex/Em 540/590 on SpectraMax® i3 Multi-Mode microplate reader (Molecular Devices, LLC; San Jose, CA, USA) and plotted against drug concentration to determine the IC50 of the test compounds. The IC50 was obtained by non-linear regression model using GraphPad Prism 6.07 (GraphPad Software, Inc, USA).
A general note: Resazurin is reduced to fluorescent resorufin, in cell work by metabolically active cells.

The next series has as its target T1, CYP2D6 (Homo sapiens, UniProt P10635).
T1 construct: purchased Fisher Scientific; host or cells: insect cells (supersomes)
Briefly: Inhibition assay of human CYP450 enzymes, 2D6. The class given is in vitro ADME. The settings on record: for IC50: fluorescent substrate; for no inhibition of CYP2D6 at concentrations up to: the values are: IC50. The method, then: The two compounds 4e and 4n were assessed for their ability to inhibit the three major human CYP450 enzymes, 3A4, 2D6 and 2C9. Assays were run in triplicate. Expressed enzymes in insect supersomes (Fisher Scientific, Waltham, MA) were used to minimize non-specific binding and membrane partitioning issues ([68]). The 3A4 assay uses testosterone as a substrate and analysis was performed by LC/MS/MS on a Waters Xevo TQ instrument as described above using positive electrospray ionization. Assay acceptance criteria was 20% for all standards and 25% for the LLOQ. The 2D6 and 2C9 assays use fluorescent substrates (3-[2-(N,N-diethylamino)ethyl]-7-methoxy-4-methylcoumarin for 2D6; 7-methoxy-4-(trifluoromethyl)coumarin for 2C9) and were analyzed on an Envision plate reader. GraphPad® Prism v 5.04 was used for nonlinear fitting of data to generate IC50 values.

Series [3] concerns human skin fibroblasts (HSF). Description: Normal cell line assay. In kind it is cell-based. The conditions noted are these: Skin fibroblast. As for the experimental part: In addition to having a good physicochemical profile, it is important for a studied lead to differentiate between cancer cells and highly proliferating non-cancerous cells. Therefore, we assessed compounds 4e and 4n for both the in silico and in vitro physicochemical characteristics as well as for cytotoxic effect on human skin fibroblasts (HSF) cell lines.
The effect of the two compounds was evaluated for their effect on the growth and proliferation human skin fibroblasts (HSF) as an example of non-cancerous cell lines.

For series [4], the system named is MV4-11 leukemia cell line. Briefly: CellTiter-Blue cell viability assay, MV4-11. In kind it is cell-based. The conditions noted are these: Homo sapiens, CellTiter-Blue, 48 h, maximum tested concentration 20 µM, read-out: IC50 ± SEM, MV4-11. As for the experimental part:
as §1, §2

T1 sequence (P10635 whole entry): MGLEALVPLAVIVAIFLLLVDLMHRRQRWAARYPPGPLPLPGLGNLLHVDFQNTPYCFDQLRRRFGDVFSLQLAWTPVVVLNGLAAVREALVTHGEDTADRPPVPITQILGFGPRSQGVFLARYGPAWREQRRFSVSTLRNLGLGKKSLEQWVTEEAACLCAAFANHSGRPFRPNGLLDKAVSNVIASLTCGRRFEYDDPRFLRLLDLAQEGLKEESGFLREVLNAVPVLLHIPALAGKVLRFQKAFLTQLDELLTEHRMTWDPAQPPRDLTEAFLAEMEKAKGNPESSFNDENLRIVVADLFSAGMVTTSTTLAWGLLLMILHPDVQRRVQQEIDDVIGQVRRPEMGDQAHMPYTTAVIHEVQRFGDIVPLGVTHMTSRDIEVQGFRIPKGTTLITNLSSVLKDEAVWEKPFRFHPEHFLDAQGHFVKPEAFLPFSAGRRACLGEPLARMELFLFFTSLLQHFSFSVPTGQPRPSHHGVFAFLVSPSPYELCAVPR

As for `O=C(Cc1ccc(NC(=O)c2cccc(Cl)c2)cc1)NCc1ccccc1` [Compound 4e, N-(4-(2-(benzylamino)-2-oxoethyl)phenyl)-3-chlorobenzamide], the IC50 (in general, the concentration needed to halve the response being measured) was 7.41 ± 2.8 µM in series [1]; 4.23 ± 0.2 µM in the series with K562 leukemia cell line; more than 10 µM against CYP2D6; more than 20000 nM in series [3]; 1900 ± 80 nM in series [4]. Besides, the half-life in series [2] is more than 60 min. In addition, the “Mic. Ctrl. Mouse % 60 min” value in series [2] is reported as 73%. On CYP2D6, this compound had a no inhibition of CYP2D6 at concentrations up to of more than 10 µM.
As for `O=C(Cc1ccc(NC(=O)c2cccc(Cl)n2)cc1)NCc1ccccc1` [Compound 4n, N-(4-(2-(benzylamino)-2-oxoethyl)phenyl)-6-chloropicolinamide], the IC50 in series [1] is 0.25 µM; in the series with K562 leukemia cell line, 2.69 ± 0.65 µM; on CYP2D6, more than 10 µM; in series [3] it was 270 ± 30 nM; in series [4], 1960 ± 470 nM. In series [2], the half-life stood at 3.1 min. For the same compound, in series [2], the “Mic. Ctrl. Mouse % 60 min” value came out at 5.0%. The compound further displayed a no inhibition of CYP2D6 at concentrations up to on CYP2D6 of more than 10 µM.
